Measurements reported in patent US20240336657A1, “G-ALPHA-S PEPTIDE INHIBITORS AND USES THEREOF” (The Regents of the University of California, priority 2021, published 2024).
Positions of bridges follow the written chain, without caps; N, C: chain ends. Non-standard residues stand in square brackets, D forms with d. Residues, ends and D or L forms follow the SMILES beside them.

Columns and labels:
[1] = system: HeLa cells stably expressing HaloTag; assay: Chloroalkane penetration assay (CAPA); assay type: in vitro ADME, human; settings: chloroalkane-tagged (ct) peptide; HeLa cells; ct-TAMRA chase
From the text: We first tested the cell permeability of GD20, as peptide-based chemical probes often suffer from poor cell permeability. […] In order to quantitatively evaluate the cell permeability of GD20, we used a recently developed HaloTag-based assay known as a chloroalkane penetration assay (CAPA) (Figure S6I) (Peraro et al., 2018). HeLa cells stably expressing HaloTag localized to the mitochondrial outer membrane were pulsed with chloroalkane-tagged molecules (ct-molecule), washed, chased with chloroalkane-tagged TAMRA fluorophore (ct-TAMRA), and finally analyzed by flow cytometry. A lower ct-TAMRA fluorescent signal indicates competition from a higher cytosolic concentration of ct-molecule. The carboxyl terminus of GD20 (G15) was conjugated with a chloroalkane tag to make ct-GD20 (FIG. 23A).
The cell lines used for CAPA were HeLa cell lines, generated by Chenoweth and co-workers, that stably express HaloTag exclusively in the cytosol (Peraro et al., 2018). Cells were seeded in a 96-well plate the day before the experiment at a density of 4×10^4 cells per well. The day of the experiment the media was aspirated, and 100 μL of cyclic peptide dilutions in DMEM were added to the cells. Plate was incubated for 19.5 h at 37° C. with 5% CO2. […] The cells were then trypsinized, quenched with DMEM, resuspended in PBS, and analyzed using a benchtop flow cytometer (CytoFLEX, Beckman).

adenylyl cyclase = molecular target: T1, adenylyl cyclase (Homo sapiens, UniProt O95622+Q08462); assay: Forskolin-mediated, Gαs-independent adenylyl cyclase activation; assay type: biochemical
T1 construct: C1 domain (residues 442-658, VC1) of human ADCY5; C2 domain (residues 871-1082, IIC2) of human ADCY2; made in house; host or cells: Escherichia coli BL21(DE3)
T1 sequence (O95622 442-658): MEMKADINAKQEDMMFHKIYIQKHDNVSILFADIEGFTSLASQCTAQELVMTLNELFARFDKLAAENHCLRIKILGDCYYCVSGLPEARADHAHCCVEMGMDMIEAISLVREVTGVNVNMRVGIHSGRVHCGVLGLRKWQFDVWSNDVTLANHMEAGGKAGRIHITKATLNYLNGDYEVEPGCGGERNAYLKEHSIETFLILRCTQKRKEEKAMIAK
T1 sequence (Q08462 871-1082): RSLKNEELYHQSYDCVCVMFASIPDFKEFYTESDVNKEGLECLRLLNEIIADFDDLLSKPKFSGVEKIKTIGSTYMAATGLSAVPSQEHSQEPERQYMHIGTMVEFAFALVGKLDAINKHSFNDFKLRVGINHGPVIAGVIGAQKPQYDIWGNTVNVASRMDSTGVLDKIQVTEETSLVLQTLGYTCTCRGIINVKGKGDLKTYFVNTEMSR

Gαs = Gαs (Homo sapiens, UniProt P63092); assay: GDP dissociation assay ([3H]GDP); assay type: biochemical; design: made in house; host or cells: Escherichia coli BL21(DE3)
Chain of Gαs (P63092 1-380 isoform P63092-2): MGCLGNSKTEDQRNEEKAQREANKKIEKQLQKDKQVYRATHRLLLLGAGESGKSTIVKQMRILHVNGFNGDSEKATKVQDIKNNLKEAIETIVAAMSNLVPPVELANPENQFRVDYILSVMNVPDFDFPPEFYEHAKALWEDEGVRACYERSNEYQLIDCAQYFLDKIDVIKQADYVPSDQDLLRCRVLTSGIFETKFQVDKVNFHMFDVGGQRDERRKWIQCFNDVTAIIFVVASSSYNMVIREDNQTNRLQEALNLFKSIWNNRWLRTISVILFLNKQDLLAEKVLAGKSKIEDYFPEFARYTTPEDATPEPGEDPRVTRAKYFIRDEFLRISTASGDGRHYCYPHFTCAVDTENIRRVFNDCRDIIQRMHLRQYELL
Procedure: Gα proteins were diluted to 400 nM in the EDTA buffer (20 mM HEPES 7.5, 150 mM NaCl, 1 mM EDTA-Na 8.0, 2 mM DTT). [^3H]GDP (1 mCi/mL, 25.2 μM) was added to a final concentration of 1.2 μM, followed by cyclic peptides addition. After incubation at 20° C. for 30 minutes, the same volume of assay buffer ([…] HEPES-Na 7.5, 150 mM NaCl, 2 mM MgCl2, and 1 mM GDP) was added to initiate [^3H]GDP dissociation. At various points, […] was removed and mixed with 390 μL of ice-cold wash buffer (20 mM HEPES 7.5, 150 mM NaCl, 20 mM MgCl2). The mixture was immediately filtered through a mixed cellulose membrane (25 mm, 0.22 μm) held by a microanalysis filter holder (EMD Millipore). The membrane was washed by ice-cold wash buffer (500 μL×3), put in a 6-mL plastic vial and air-dried (room temperature 1.5 h). 5 mL of CytoScint-ES Liquid Scintillation Cocktail was added to each vial. After incubation overnight at room temperature, the vial was used for liquid scintillation counting with a LS 6500 Multi-Purpose Scintillation Counter.
The GDP dissociation curves were fitted by the software GraphPad Prism using the following equation to calculate the dissociation rates (koff): […]
in which “Y” is the radioactivity (Counts per minute) of the sample at time “X” (minutes), and Y0 is the calculated radioactivity of the sample at the time point 0.

Row | SMILES | cell permeability (CAPA) [1] | inhibition of forskolin-mediated, Gαs-independent adenylyl cyclase activation (adenylyl cyclase) | effect on Gαs GDP dissociation rates (koff) (Gαs)
1 | CC[C@H](C)[C@@H]1NC(=O)[C@H](CC(C)C)NC(=O)[C@@H](Cc2ccc(O)cc2)NC(=O)CSC[C@@H](C(=O)NCC(N)=O)NC(=O)[C@@H]2CCCN2C(=O)[C@H](CC(C)C)NC(=O)[C@H](CC(N)=O)NC(=O)[C@H](CC(C)C)NC(=O)[C@H](C)NC(=O)[C@H](Cc2c[nH]c3ccccc23)NC(=O)[C@H](CCC(N)=O)NC(=O)[C@H](CCCNC(=N)N)NC(=O)[C@H](Cc2ccccc2)NC(=O)[C@H]([C@@H](C)O)NC1=O [GD20-F10L] ({CH2CO}-[dY]LITFRQWALNLPCG-NH2; thioether N-14) | significantly improved cell penetration | – | –
2 | CC[C@H](C)[C@@H]1NC(=O)[C@H](C)NC(=O)[C@H](Cc2ccc(O)cc2)NC(=O)[C@H](C(C)C)NC(=O)[C@H](CO)NC(=O)[C@H](CCC(=O)O)NC(=O)[C@H](Cc2ccccc2)NC(=O)[C@@H](Cc2ccc(O)cc2)NC(=O)CSC[C@@H](C(=O)NCC(N)=O)NC(=O)[C@H](CC(C)C)NC(=O)[C@H]([C@@H](C)O)NC(=O)CNC(=O)[C@H](Cc2c[nH]c3ccccc23)NC1=O [GN13] ({CH2CO}-[dY]FESVYAIWGTLCG-NH2; thioether N-13) | – | did not inhibit | only slightly influenced
